Source: patent US20240109917A1 (ACTELION PHARMACEUTICALS LTD, priority 2020, published 2024)
Where two headings read alike, the source gives them in different places.

Experiments:
PDGFRβ = PDGFRβ (Rattus norvegicus (Rat), UniProt Q05030); experiment: PDGFRβ Cellular Assay (PDGFRb P-Y751 HTRF in A10 cells stimulated with PDGF-BB); assay type: cell-based
In short: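 Phospho-Y751 PDGFRβ was measured by HTRF in lysates of A10 rat cells. Cells received compound for 3 hours before PDGF-BB stimulation (100 ng/mL working stock).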

[1] = target: Tb-labeled inactive PDGFRβ (Homo sapiens (Human), UniProt P09619); experiment: PDGFRβ LanthaScreen Assay; assay type: binding; conditions: read-out: PDGFR Lantha IC50
Tb-labeled inactive PDGFRβ, sequence (P09619 33-1106): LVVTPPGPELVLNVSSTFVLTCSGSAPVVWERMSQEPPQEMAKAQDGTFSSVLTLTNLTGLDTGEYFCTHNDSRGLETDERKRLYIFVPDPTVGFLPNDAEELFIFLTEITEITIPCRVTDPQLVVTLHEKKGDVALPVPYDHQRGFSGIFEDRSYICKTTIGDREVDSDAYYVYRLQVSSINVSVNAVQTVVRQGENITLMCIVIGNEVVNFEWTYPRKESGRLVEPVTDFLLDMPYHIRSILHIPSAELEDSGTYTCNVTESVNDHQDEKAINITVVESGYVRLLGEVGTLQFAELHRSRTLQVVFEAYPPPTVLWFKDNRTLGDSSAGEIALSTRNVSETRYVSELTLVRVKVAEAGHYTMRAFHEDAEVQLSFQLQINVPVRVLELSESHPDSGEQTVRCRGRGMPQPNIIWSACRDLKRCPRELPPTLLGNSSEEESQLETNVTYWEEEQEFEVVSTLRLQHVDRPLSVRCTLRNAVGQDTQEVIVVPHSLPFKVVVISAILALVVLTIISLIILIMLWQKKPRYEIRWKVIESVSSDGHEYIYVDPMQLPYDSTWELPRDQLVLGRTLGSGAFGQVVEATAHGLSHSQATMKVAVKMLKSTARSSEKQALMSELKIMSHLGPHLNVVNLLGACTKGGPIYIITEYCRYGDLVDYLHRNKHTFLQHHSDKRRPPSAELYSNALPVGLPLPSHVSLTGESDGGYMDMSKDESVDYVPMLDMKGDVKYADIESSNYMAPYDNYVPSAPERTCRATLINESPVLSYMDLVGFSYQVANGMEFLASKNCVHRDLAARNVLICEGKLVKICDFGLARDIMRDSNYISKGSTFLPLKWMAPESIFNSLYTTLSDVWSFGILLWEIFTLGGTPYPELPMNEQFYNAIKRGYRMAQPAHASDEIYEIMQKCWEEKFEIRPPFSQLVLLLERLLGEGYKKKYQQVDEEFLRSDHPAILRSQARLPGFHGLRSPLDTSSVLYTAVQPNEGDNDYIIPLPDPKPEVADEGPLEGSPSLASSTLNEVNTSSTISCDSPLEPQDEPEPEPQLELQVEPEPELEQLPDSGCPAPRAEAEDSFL

[2] = target: His6-TEV-PDGFRβ (557-1016) (Homo sapiens (Human), UniProt P09619); experiment: PDGFRβ HTRF Assay; assay type: biochemical; conditions: read-out: PDGFR HTRF IC50
His6-TEV-PDGFRβ (557-1016), sequence (P09619 557-1016): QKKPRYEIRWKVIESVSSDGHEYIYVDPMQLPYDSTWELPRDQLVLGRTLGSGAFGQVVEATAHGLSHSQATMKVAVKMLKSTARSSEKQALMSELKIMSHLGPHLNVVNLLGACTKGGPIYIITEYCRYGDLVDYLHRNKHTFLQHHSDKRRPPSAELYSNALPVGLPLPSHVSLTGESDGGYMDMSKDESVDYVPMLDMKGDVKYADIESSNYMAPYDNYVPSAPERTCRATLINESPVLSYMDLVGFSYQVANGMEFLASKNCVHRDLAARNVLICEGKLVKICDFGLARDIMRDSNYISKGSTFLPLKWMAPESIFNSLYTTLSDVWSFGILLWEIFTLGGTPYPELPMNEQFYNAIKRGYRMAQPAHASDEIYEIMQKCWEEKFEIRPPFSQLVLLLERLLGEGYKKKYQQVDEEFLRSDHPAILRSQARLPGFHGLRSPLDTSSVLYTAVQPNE
In short: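 HTRF KinEASE-TK readout (665/620 nm ratio) of TK-biotin substrate phosphorylation by His-tagged PDGFRβ kinase domain. Enzyme and inhibitor preincubated 30 min, then ATP/substrate added for 3 h at room temperature before 60 min EDTA quench/detection.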

PDGFRβ, sequence (Q05030 32-1097): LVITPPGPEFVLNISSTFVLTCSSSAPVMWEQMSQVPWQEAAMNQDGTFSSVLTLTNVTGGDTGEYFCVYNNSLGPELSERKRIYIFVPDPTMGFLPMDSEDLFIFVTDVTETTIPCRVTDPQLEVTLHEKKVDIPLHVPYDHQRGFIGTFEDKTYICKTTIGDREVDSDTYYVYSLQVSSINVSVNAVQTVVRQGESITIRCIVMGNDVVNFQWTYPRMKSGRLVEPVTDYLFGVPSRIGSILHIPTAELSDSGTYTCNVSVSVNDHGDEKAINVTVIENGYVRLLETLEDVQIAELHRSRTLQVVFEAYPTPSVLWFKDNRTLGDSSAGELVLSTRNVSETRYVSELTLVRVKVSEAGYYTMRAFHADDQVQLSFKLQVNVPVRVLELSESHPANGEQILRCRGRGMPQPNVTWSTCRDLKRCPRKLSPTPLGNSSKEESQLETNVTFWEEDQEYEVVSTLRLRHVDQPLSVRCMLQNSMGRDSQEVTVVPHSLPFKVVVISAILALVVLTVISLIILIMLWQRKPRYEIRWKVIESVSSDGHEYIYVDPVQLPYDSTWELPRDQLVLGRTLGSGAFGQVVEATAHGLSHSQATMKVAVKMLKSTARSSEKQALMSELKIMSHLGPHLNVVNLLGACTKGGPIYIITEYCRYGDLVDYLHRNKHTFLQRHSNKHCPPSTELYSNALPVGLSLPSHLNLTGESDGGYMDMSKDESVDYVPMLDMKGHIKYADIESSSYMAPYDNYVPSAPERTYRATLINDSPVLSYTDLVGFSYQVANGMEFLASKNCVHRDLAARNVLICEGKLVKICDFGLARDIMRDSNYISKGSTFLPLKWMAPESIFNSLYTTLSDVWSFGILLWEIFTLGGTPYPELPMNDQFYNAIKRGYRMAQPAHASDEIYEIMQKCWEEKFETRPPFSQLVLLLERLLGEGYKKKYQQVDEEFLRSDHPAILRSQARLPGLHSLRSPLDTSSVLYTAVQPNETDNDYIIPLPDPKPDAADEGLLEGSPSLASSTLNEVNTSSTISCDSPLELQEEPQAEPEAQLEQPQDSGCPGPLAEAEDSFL

Structure (SMILES) | IC50 (PDGFRβ; read-out: PDGFR Cellular IC50) [nM] | IC50 [1] [nM] | IC50 [2] [nM] | IC50 (PDGFRβ; PDGFR Cellular IC50) [nM]
Cc1ncc(C(=O)NCCN2CCC3(CCOC3)C2)cc1NC(=O)c1cnn2cc(-c3cnn(C)c3)sc12 (stereo not drawn) [Example 116, N-(5-((2-(2-oxa-7-azaspiro[4.4]nonan-7-yl)ethyl)carbamoyl)-2-methylpyridin-3-yl)-2-(1-methyl-1H-pyrazol-4-yl)pyrazolo[5,1-b]thiazole-7-carboxamide] | 74.7 | 12.7 | 0.5 | 
Cc1ncc(NC(=O)NCC2CCN(C)CC2)cc1NC(=O)c1cnn2cc(-c3cnn(C)c3)sc12 [Example 107, 2-(1-methyl-1H-pyrazol-4-yl)-N-(2-methyl-5-(3-((1-methylpiperidin-4-yl)methyl)ureido)pyridin-3-yl)pyrazolo[5,1-b]thiazole-7-carboxamide] | > 3000 | 582 | 13.2 | 
Cc1ncc(NC(=O)CCN2CCCC23CC3)cc1NC(=O)c1cnn2cc(-c3cnn(C)c3)sc12 [Example 98] | 4.7 | 2.9 | 0.3 | 
Cc1ncc(C(=O)NCCN2C3CCC2COC3)cc1NC(=O)c1cnn2cc(-c3cnn(C)c3)sc12 [Example 122, N-(5-((2-(3-oxa-8-azabicyclo[3.2.1]octan-8-yl)ethyl)carbamoyl)-2-methylpyridin-3-yl)-2-(1-methyl-1H-pyrazol-4-yl)pyrazolo[5,1-b]thiazole-7-carboxamide] | 19.4 | 2.8 | 0.3 | 
Cc1ncc(C(=O)NCCN2CCCC2(C)C)cc1NC(=O)c1cnn2cc(-c3cnn(C4CC4)c3)sc12 [Example 6, 2-(1-cyclopropyl-1H-pyrazol-4-yl)-N-(5-((2-(2,2-dimethylpyrrolidin-1-yl)ethyl)carbamoyl)-2-methylpyridin-3-yl)pyrazolo[5,1-b]thiazole-7-carboxamide] | 7.7 | 4.7 | 0.2 | 
Cc1ncc(C(=O)NCCN2CC(F)(F)C2)cc1NC(=O)c1cnn2cc(-c3ccncc3)sc12 [Example 152, N-(5-((2-(3,3-difluoroazetidin-1-yl)ethyl)carbamoyl)-2-methylpyridin-3-yl)-2-(pyridin-4-yl)pyrazolo[5,1-b]thiazole-7-carboxamide] | 66.2 | 12.4 | 0.4 | 
Cc1ncc(NC(=O)CCN2CC(C)(C)C2)cc1NC(=O)c1cnn2cc(-c3cnn(C)c3)sc12 [Example 96, N-(5-(3-(3,3-dimethylazetidin-1-yl)propanamido)-2-methylpyridin-3-yl)-2-(1-methyl-1H-pyrazol-4-yl)pyrazolo[5,1-b]thiazole-7-carboxamide] | 17 | 28.4 | 0.6 | 
Cc1ncc(C(=O)NCCN2CCC3(CC3)C2)cc1NC(=O)c1cnn2cc(-c3cn(C)cn3)sc12 [Example 162, N-(5-((2-(5-azaspiro[2.4]heptan-5-yl)ethyl)carbamoyl)-2-methylpyridin-3-yl)-2-(1-methyl-1H-imidazol-4-yl)pyrazolo[5,1-b]thiazole-7-carboxamide] | 660 | 7.7 | 0.4 | 
Cc1ncc(NC(=O)CCN2CCCC2(C)C)cc1NC(=O)c1cnn2cc(-c3cnn(C)c3)sc12 [Example 10, N-(5-(3-(2,2-dimethylpyrrolidin-1-yl)propanamido)-2-methyl-pyridin-3-yl)-2-(1-methyl-1H-pyrazol-4-yl)pyrazolo[5,1-b]thiazole-7-carboxamide] | 5.2 | 2.8 | 0.3 | 
Cc1ncc(C(=O)NCCN2CCCC23COC3)cc1NC(=O)c1cnn2cc(-c3c(C)nn(C)c3C)sc12 [Example 179, N-(5-((2-(2-oxa-5-azaspiro[3.4]octan-5-yl)ethyl)carbamoyl)-2-methylpyridin-3-yl)-2-(1,3,5-trimethyl-1H-pyrazol-4-yl)pyrazolo[5,1-b]thiazole-7-carboxamide] | 54.5 | 6.9 | 1 | 
Cc1ncc(C(=O)NCCN2CCCC(F)(F)C2)cc1NC(=O)c1cnn2cc(-c3cnn(C)c3)sc12 [Example 123, N-(5-((2-(3,3-difluoropiperidin-1-yl)ethyl)carbamoyl)-2-methylpyridin-3-yl)-2-(1-methyl-1H-pyrazol-4-yl)pyrazolo[5,1-b]thiazole-7-carboxamide] | 7.8 | 2.7 | 0.3 | 
Cc1ncc(C(=O)NCCN2CCCC23COC3)cc1NC(=O)c1cnn2cc(-c3cnn(C)c3)sc12 [Example 114, N-(5-((2-(2-oxa-5-azaspiro[3.4]octan-5-yl)ethyl)carbamoyl)-2-methylpyridin-3-yl)-2-(1-methyl-1H-pyrazol-4-yl)pyrazolo[5,1-b]thiazole-7-carboxamide] | 27.6 | 4.6 | 0.4 | 
Cc1ncc(C(=O)NCCN2CC(C)(C)C2)cc1NC(=O)c1cnn2cc(-c3cccnc3)sc12 [Example 158, N-(5-((2-(3,3-dimethylazetidin-1-yl)ethyl)carbamoyl)-2-methylpyridin-3-yl)-2-(pyridin-3-yl)pyrazolo[5,1-b]thiazole-7-carboxamide] | 156 | 32.5 | 0.9 | 
Cc1ncc(C(=O)NCCN2CCC3(CC3)C2)cc1NC(=O)c1cnn2cc(-c3ccccn3)sc12 [Example 160, N-(5-((2-(5-azaspiro[2.4]heptan-5-yl)ethyl)carbamoyl)-2-methylpyridin-3-yl)-2-(pyridin-2-yl)pyrazolo[5,1-b]thiazole-7-carboxamide] | 25.3 | 4.4 | 0.2 | 
Cc1ncc(C(=O)NCCN2CC3CCC2CC3)cc1NC(=O)c1cnn2cc(-c3ccc4oc(=O)[nH]c4c3)sc12 [Example 145, N-(5-((2-(2-azabicyclo[2.2.2]octan-2-yl)ethyl)carbamoyl)-2-methylpyridin-3-yl)-2-(2-oxo-2,3-dihydrobenzo[d]oxazol-5-yl)pyrazolo[5,1-b]thiazole-7-carboxamide] | 407 | 1.4 | 0.2 | 
Cc1ncc(C(=O)NCCN2C3CCC2CC3)cc1NC(=O)c1cnn2cc(-c3cnn(C)c3C)sc12 [Example 172, N-(5-((2-(7-azabicyclo[2.2.1]heptan-7-yl)ethyl)carbamoyl)-2-methylpyridin-3-yl)-2-(1,5-dimethyl-1H-pyrazol-4-yl)pyrazolo[5,1-b]thiazole-7-carboxamide] | 66.6 | 3 | 0.3 | 
Cc1ncc(C(=O)NCCN2CC3CCC2CC3)cc1NC(=O)c1cnn2cc(-c3cnn(CS(C)(=O)=O)c3)sc12 [Example 143, N-(5-((2-(2-azabicyclo[2.2.2]octan-2-yl)ethyl)carbamoyl)-2-methylpyridin-3-yl)-2-(1-((methylsulfonyl)methyl)-1H-pyrazol-4-yl)pyrazolo[5,1-b]thiazole-7-carboxamide] | 998 | 5.3 | 0.6 | 
Cc1ncc(C(=O)NCCN2CCCC2(C)C)cc1NC(=O)c1cnn2cc(-c3ccncc3)sc12 [Example 7, N-(5-((2-(2,2-dimethylpyrrolidin-1-yl)ethyl)carbamoyl)-2-methyl-pyridin-3-yl)-2-(pyridin-4-yl)pyrazolo[5,1-b]thiazole-7-carboxamide] | 15.8 | 8.3 | 0.5 | 
Cc1ncc(C(=O)NCCN2CCC23CCC3)cc1NC(=O)c1cnn2cc(-c3cnn(C)c3C)sc12 [Example 169, N-(5-((2-(1-azaspiro[3.3]heptan-1-yl)ethyl)carbamoyl)-2-methylpyridin-3-yl)-2-(1,5-dimethyl-1H-pyrazol-4-yl)pyrazolo[5,1-b]thiazole-7-carboxamide] | 15 | 2.8 | 0.3 | 
COCCN(CCNC(=O)c1cnc(C)c(NC(=O)c2cnn3cc(-c4cnn(C)c4)sc23)c1)C(C)C [Example 127, N-(5-((2-(isopropyl(2-methoxyethyl)amino)ethyl)carbamoyl)-2-methylpyridin-3-yl)-2-(1-methyl-1H-pyrazol-4-yl)pyrazolo[5,1-b]thiazole-7-carboxamide] |  | 6 | 0.6 | 16.2
Cc1ncc(C(=O)NCCN2CC(C)(C)C2)cc1NC(=O)c1cnn2cc(-c3ccncc3)sc12 [Example 155, N-(5-((2-(3,3-dimethylazetidin-1-yl)ethyl)carbamoyl)-2-methylpyridin-3-yl)-2-(pyridin-4-yl)pyrazolo[5,1-b]thiazole-7-carboxamide] | 153 | 39.4 | 1 | 
COCCn1nc(C)c(-c2cn3ncc(C(=O)Nc4cc(NC(=O)CCN5CCC6(CC6)C5)cnc4C)c3s2)c1C [Example 103, N-(5-(3-(5-azaspiro[2.4]heptan-5-yl)propanamido)-2-methylpyridin-3-yl)-2-(1-(2-methoxyethyl)-3,5-dimethyl-1H-pyrazol-4-yl)pyrazolo[5,1-b]thiazole-7-carboxamide] | 38.8 | 8.6 | 0.8 | 
Cc1ncc(C(=O)NCCN2CCC(F)(F)CC2)cc1NC(=O)c1cnn2cc(-c3cnn(C)c3)sc12 [Example 119, N-(5-((2-(4,4-difluoropiperidin-1-yl)ethyl)carbamoyl)-2-methylpyridin-3-yl)-2-(1-methyl-1H-pyrazol-4-yl)pyrazolo[5,1-b]thiazole-7-carboxamide] | 4.9 | 2 | 0.3 | 
